Measurements published in patent publication US10202344B2, “Aryl substituted indoles and the use thereof” (Purdue Pharma L.P., priority 2010, dated 2019).
Like-named read-outs stand apart in the source and are kept apart here.

What was measured:
human Nav1.7 = human Nav1.7 (Homo sapiens (Human), UniProt Q15858); assay: FLIPR or FLIPR TETRA sodium dye assay with KCl and test article pre-incubation; assay type: cell-based; settings: read-out: FLIPR Nav1.7 IC50 (μM) ± SEM
hNav1.7 = hNav1.7 (Homo sapiens (Human), UniProt Q15858); assay: Electrophysiology (EP) assay, whole-cell patch clamp; assay type: cell-based; settings: hNav1.7 expressing HEK-293 cells, read-out: EP Nav1.7 Ki
hNav1.7, sequence (Q15858 other isoform, or with tags, fused parts or gaps): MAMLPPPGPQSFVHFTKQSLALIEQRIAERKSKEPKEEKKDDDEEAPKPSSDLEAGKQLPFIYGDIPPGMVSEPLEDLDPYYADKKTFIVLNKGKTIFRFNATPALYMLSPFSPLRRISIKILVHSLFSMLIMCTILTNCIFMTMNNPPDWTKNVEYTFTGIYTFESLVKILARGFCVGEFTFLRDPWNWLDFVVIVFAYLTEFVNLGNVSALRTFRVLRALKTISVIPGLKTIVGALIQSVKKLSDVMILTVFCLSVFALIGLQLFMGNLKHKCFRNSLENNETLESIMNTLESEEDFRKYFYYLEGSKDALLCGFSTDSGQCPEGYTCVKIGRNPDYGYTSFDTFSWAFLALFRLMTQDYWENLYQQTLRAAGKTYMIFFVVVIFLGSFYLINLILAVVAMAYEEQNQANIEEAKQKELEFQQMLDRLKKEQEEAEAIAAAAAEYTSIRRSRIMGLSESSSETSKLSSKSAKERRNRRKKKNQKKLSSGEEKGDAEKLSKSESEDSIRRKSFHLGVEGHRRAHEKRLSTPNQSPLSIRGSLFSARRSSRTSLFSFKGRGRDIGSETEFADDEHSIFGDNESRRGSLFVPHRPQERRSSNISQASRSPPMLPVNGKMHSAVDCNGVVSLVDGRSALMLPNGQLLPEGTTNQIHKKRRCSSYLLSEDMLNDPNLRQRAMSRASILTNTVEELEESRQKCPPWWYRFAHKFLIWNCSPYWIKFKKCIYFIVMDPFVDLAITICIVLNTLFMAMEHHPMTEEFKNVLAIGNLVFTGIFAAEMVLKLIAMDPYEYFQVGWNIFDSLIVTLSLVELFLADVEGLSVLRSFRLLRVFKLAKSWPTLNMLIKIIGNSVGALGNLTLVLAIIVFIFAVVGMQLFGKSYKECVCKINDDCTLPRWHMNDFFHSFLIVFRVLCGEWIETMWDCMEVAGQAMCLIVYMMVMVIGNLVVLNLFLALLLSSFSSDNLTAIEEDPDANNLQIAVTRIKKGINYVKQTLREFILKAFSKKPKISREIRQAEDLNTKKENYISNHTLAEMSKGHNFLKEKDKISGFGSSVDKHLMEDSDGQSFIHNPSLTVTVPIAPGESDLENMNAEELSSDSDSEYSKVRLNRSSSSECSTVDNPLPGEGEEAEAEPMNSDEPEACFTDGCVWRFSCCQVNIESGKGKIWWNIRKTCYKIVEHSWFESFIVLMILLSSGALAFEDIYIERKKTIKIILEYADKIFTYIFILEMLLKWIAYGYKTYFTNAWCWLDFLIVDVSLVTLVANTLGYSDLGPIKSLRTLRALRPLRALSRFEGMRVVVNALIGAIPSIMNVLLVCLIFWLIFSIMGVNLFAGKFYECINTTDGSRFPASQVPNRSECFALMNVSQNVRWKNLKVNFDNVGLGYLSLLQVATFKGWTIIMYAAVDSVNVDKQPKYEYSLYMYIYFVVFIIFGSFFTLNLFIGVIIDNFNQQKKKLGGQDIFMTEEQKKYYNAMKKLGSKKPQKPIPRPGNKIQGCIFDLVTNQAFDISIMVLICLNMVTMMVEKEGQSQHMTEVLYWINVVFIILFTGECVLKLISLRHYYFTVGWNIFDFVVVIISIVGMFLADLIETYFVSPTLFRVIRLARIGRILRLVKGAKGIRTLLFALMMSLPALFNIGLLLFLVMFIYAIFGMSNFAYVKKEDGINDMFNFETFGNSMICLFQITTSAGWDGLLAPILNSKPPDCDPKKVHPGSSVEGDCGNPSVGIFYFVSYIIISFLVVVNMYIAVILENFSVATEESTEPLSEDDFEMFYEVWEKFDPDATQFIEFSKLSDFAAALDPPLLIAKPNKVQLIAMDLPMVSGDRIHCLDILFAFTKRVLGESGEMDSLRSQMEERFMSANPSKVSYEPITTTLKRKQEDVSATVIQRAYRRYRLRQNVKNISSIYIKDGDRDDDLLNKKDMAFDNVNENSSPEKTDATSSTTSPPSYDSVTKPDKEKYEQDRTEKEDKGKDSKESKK
Experimental: Cells: The hNav1.7 expressing HEK-293 cells were plated on 35 mm culture dishes pre-coated with poly-D-lysine in standard DMEM culture media (Mediatech, Inc., Herndon, Va.) and incubated in a 5% CO2 incubator at 37° C. Cultured cells were used approximately 12-48 hours after plating.
Electrophysiology: On the day of experimentation, the 35 mm dish was placed on the stage of an inverted microscope equipped with a perfusion system that continuously perfuses the culture dish with fresh recording media. A gravity driven superfusion system was used to apply test solutions directly to the cell under evaluation. This system consists of an array of glass pipette glass connected to a motorized horizontal translator. The outlet of the shooter was positioned approximately 100 μm from the cell of interest.
Gigaseals were formed and the whole-cell configuration was established in voltage clamp mode, and membrane currents generated by hNav1.7 were recorded in gap-free mode. […] Signals were sampled at 50 kHz and low pass filtered at 3 kHz.
The voltage clamp protocol to examine hNav1.7 currents was as follows. […] The amount of inhibition produced by the test compound was determined by comparing the current amplitude elicited by the test pulse in the absence and presence of the compound. […]

[1] = recombinant human Nav1.7 in HEK293 cells, sodium dye assay with KCl

human Nav1.7, sequence (Q15858 other isoform, or with tags, fused parts or gaps): as above

Compound: (S)-3-(1-(4-(4-fluorophenoxy)phenyl)-1H-pyrrolo[2,3-c]pyridin-3-yl)propane-1,2-diol [Compound 170]
- IC50 (human Nav1.7; [1]): 1.38 ± 0.542 µM

Compound: N#Cc1cccc(Oc2ccc(-n3cc(C[C@H](N)CO)c4ccccc43)cc2)c1 [Compound 57, (S)-5-{4-[3-(2-Amino-3-hydroxypropyl)-1H-indol-1-yl]phenoxy}benzonitrile]
- Ki (hNav1.7): 50 nM
- IC50 (human Nav1.7; [1]): 0.383 ± 0.081 µM

Compound: N#Cc1cc(Oc2ccc(-n3cc(C(=O)C(N)=O)c4ccccc43)cc2)ccc1C(F)(F)F [Compound 59, 2-(1-(4-(3-Cyano-4-(trifluoromethyl)phenoxy)phenyl)-1H-indol-3-yl)-2-oxoacetamide]
- IC50 (human Nav1.7): 3.54 ± 0.459 µM

Compound: NCCc1cn(-c2ccc(Oc3ccccc3)cc2)c2ccccc12 [Compound 43, 2-(1-(4-Phenoxyphenyl)-1H-indol-3-yl)ethanamine]
- IC50 (human Nav1.7; [1]): 0.684 ± 0.041 µM

Compound: CN(C)CCc1cn(-c2ccc(Oc3ccccc3)cc2)c2ccc(C[C@H]3COC(=O)N3)cc12 [Compound 45, (S)-4-{[3-(2-(Dimethylamino)ethyl)-1-(4-phenoxyphenyl)-1H-indol-5-yl]methyl}oxazolidin-2-one]
- Ki (hNav1.7): 1310 nM
- IC50 (human Nav1.7; [1]): 1.9 ± 0.636 µM

Compound: O=C(NCCO)c1nn(-c2ccc(Oc3ccccc3)cc2)c2ccccc12 [Compound 144, N-(2-hydroxyethyl)-1-(4-phenoxyphenyl)-1H-indazole-3-carboxamide]
- IC50 (human Nav1.7): 0.16 ± 0.049 µM

Compound: N#Cc1cc(Oc2ccc(-n3nc(C(N)=O)c4ccccc43)cc2)ccc1C(F)(F)F [Compound 152, 1-(4-(3-cyano-4-(trifluoromethyl)phenoxy)-phenyl)-1H-indazole-3-carboxamide]
- IC50 (human Nav1.7; [1]): 0.602 ± 0.053 µM

Compound: N#Cc1cc(Oc2ccc(-n3cc(C(=O)C(=O)NC[C@H](O)CO)c4ccccc43)cc2)ccc1C(F)(F)F [Compound 68, (S)-2-(1-(4-(3-cyano-4-(trifluoromethyl)phenoxy)-phenyl)-1H-indol-3-yl)-N-(2,3-dihydroxypropyl)-2-oxoacetamide]
- IC50 (human Nav1.7; [1]): 0.572 ± 0.137 µM

Compound: NC(=O)c1nn(-c2ccc(Oc3ccc(C(F)(F)F)cc3)cc2)c2ccc(F)cc12 [Compound 150, 5-fluoro-1-(4-(4-(trifluoromethyl)phenoxy)phenyl)-1H-indazole-3-carboxamide]
- IC50 (human Nav1.7; [1]): 6.97 ± 0.934 µM

Compound: N#Cc1cc(Oc2ccc(-n3cc(C[C@H]4COC(=O)N4)c4ccccc43)cc2)ccc1C(F)(F)F [Compound 46, (S)-5-{4-[3-((2-Oxooxazolidin-4-yl)methyl)-1H-indol-1-yl]phenoxy}-2-(trifluoromethyl)benzonitrile]
- IC50 (human Nav1.7; [1]): 0.715 ± 0.126 µM

Compound: CCOC(=O)C(Cc1c[nH]c2ccc(-c3ccc(Oc4ccccc4)cc3)cc12)[N+](=O)[O-] (centres unmarked) [Compound 6, 2-Nitro-3-[5-(4-phenoxyphenyl)-1H-indol-3-yl]propionic acid ethyl ester]
- IC50 (human Nav1.7; [1]): 5.14 ± 0.954 µM

Compound: N#Cc1cc(Oc2ccc(-n3cc(C(=O)C(=O)O)c4cc([C@@H](O)CO)ccc43)cc2)ccc1C(F)(F)F [Compound 98, (R)-2-(1-(4-(3-cyano-4-(trifluoromethyl)phenoxy)-phenyl)-5-(1,2-dihydroxyethyl)-1H-indol-3-yl)-2-oxoacetic acid]
- IC50 (human Nav1.7; [1]): > 20 µM
